From ChEMBL document CHEMBL1134235, “Bisphosphonates derived from fatty acids are potent growth inhibitors of Trypanosoma cruzi” (Bioorg Med Chem Lett, 2001)

Key:
[1] = tested on: Trypanosoma cruzi; experiment: In vitro antiparasitic activity against Trypanosoma cruzi (amastigotes); type: functional, organism-based
[2] = tested on: Trypanosoma cruzi; experiment: In vitro antiparasitic activity against Trypanosoma cruzi (epimastigotes); type: functional, organism-based
[3] = tested on: Trypanosoma cruzi; experiment: In vitro […] antiparasitic activity against Trypanosoma cruzi at 70 uM (amastigotes); type: functional
[4] = tested on: Trypanosoma cruzi; experiment: In vitro […] antiparasitic activity against Trypanosoma cruzi at 50 uM (amastigotes); type: functional

| Structure (SMILES) | IC50 [1] [µM] | IC50 [2] [µM] | inhibition at 70 µM [3] [%] | inhibition at 50 µM [4] [%] |
| --- | --- | --- | --- | --- |
| CCCCCCCCC(O)(P(=O)(O)O)P(=O)(O)O | 65.8 | > 70 | – | – |
| O=P(O)(O)C(O)(COc1ccc(Oc2ccccc2)cc1)P(=O)(O)O | > 50 | – | 23 | – |
| O=P(O)(O)C(O)(COc1ccc(Cl)cc1Cl)P(=O)(O)O | > 50 | – | – | 37 |
| CCCCCCCC(O)(P(=O)(O)O)P(=O)(O)O | > 70 | > 70 | 41 | – |
| CCCCCC(O)(P(=O)(O)O)P(=O)(O)O | 70 | > 70 | 34 | – |
| O=P(O)(O)C(O)(COc1ccccc1)P(=O)(O)O | > 70 | – | 16 | – |
| CCCC(O)(P(=O)(O)O)P(=O)(O)O | 21.4 | > 70 | – | – |
| CCCCCCCCCC(O)(P(=O)(O)O)P(=O)(O)O | > 70 | > 70 | 10 | – |
| CCCCCCC(O)(P(=O)(O)O)P(=O)(O)O | 18.1 | > 70 | – | – |
| CCCCCCCCCCCCCC(O)(P(=O)(O)O)P(=O)(O)O | 53.5 | – | – | – |
| NCCCC(O)(P(=O)(O)O)P(=O)(O)O [ALENDRONIC ACID] | 65 | – | – | – |
| NCCC(O)(P(=O)(O)O)P(=O)(O)O [PAMIDRONIC ACID] | 65 | – | – | – |
| O=P(O)(O)C(O)(Cc1cccnc1)P(=O)(O)O [RISEDRONIC ACID] | 300 | – | – | – |
